Laboratory results taken from ChEMBL document CHEMBL3779789, “Tricyclic pyrazoles. Part 8. Synthesis, biological evaluation and modelling of tricyclic pyrazole carboxamides as potential CB2 receptor ligands with antagonist/inverse agonist properties” (Eur J Med Chem, 2016).
pIC50, pKi: −log10 of the molar value. Values belong to the compound of their own block, whether it stands above or below them. Calls of active or inactive are those of the source. The rule behind the calls is not given here.

Assays:
Cannabinoid receptor 1 [1] = biological target: T1, Cannabinoid receptor 1 (Homo sapiens, UniProt P21554); test: Displacement of [3H]CP55940 from human CB1 receptor expressed in HEK293-EBNA cell membrane incubated for 90 mins by liquid scintillation counting method; format: cell membranes
Cannabinoid receptor 2 [2] = biological target: T2, Cannabinoid receptor 2 (Homo sapiens, UniProt P34972); test: Displacement of [3H]CP55940 from human CB2 receptor expressed in HEK293-EBNA cell membrane incubated for 90 mins by liquid scintillation counting method; format: cell membranes
Cannabinoid receptor 1 [3] = biological target: T1, Cannabinoid receptor 1; test: Displacement of [3H]CP55940 from human CB1 receptor expressed in HEK293-EBNA cell membrane at 40 uM incubated for 90 mins by liquid scintillation counting method relative to control; format: cell membranes
Cannabinoid receptor 2 [4] = biological target: T2, Cannabinoid receptor 2; test: Displacement of [3H]CP55940 from human CB2 receptor expressed in HEK293-EBNA cell membrane at 40 uM incubated for 90 mins by liquid scintillation counting method relative to control; format: cell membranes
[5] = Selectivity ratio of Ki for human CB1 receptor expressed in HEK293-EBNA cell membrane to Ki for human CB2 receptor expressed in HEK293-EBNA cell membrane; format: cell-based
Cannabinoid receptor 2 [6] = biological target: T2, Cannabinoid receptor 2; test: Antagonist/inverse agonist activity at human CB2 receptors expressed in human Chem4 cell membrane incubated for 30 mins by [35S]GTPgammaS binding assay; format: functional, cell membranes
[7] = biological target: Cannabinoid receptor 2 (Mus musculus) (UniProt P47936); test: Antagonist/inverse agonist activity at CB2 receptor in mouse BV2 cells assessed as increase in LPS-induced PGE2 production at 10 fold Ki concentration incubated for 16 hrs by ELISA; format: cell-based; conditions: BV-2
[8] = biological target: Cannabinoid receptor 2 (Mus musculus) (UniProt P47936); test: Antagonist/inverse agonist activity at CB2 receptor in mouse BV2 cells assessed as increase in LPS-induced PGE2 production at 10 fold Ki concentration incubated for 16 hrs by ELISA in presence of CB2 antagonist/inverse agonist SR144528; format: cell-based; conditions: BV-2
[9] = biological target: Cannabinoid receptor 2 (Mus musculus) (UniProt P47936); test: Antagonist activity at CB2 receptor in mouse BV2 cells assessed as reversal of WIN55,212-2-induced reduction of LPS-induced PGE2 production at 10 fold Ki concentration incubated for 16 hrs by ELISA; format: cell-based; conditions: BV-2

T2 sequence (P34972 whole entry): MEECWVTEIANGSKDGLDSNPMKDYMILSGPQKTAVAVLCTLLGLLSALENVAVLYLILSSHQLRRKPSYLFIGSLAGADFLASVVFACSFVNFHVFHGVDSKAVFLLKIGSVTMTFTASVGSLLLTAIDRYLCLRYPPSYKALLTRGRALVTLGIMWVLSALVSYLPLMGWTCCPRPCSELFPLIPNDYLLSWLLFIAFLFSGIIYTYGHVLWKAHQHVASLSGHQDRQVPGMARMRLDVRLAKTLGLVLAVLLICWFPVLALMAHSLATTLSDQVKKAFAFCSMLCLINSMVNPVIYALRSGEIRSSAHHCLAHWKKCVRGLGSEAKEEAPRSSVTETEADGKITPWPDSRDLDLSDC
T1 sequence (P21554 whole entry): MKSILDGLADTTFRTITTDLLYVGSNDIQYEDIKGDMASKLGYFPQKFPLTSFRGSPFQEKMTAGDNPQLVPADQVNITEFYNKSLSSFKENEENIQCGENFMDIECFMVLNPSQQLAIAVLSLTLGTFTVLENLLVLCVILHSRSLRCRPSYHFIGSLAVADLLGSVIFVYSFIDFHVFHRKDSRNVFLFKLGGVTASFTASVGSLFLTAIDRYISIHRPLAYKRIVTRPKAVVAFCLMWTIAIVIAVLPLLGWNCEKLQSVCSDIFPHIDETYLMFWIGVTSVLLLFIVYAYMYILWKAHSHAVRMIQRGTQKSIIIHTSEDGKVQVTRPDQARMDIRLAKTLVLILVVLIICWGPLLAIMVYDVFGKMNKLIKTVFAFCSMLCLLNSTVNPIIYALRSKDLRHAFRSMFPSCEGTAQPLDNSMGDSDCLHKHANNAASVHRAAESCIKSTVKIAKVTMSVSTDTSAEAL
Cannabinoid receptor 2 (Mus musculus), sequence (P47936 whole entry): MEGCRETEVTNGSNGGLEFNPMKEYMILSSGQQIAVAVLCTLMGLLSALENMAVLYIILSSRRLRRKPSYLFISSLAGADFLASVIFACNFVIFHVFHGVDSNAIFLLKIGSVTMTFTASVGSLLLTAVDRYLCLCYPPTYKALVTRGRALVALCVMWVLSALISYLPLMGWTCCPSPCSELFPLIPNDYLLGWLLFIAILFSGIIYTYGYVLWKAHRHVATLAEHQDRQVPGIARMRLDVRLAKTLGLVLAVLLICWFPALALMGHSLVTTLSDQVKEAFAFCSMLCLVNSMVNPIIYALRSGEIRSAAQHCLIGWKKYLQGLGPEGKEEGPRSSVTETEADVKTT

SMILES: O=C(NN1CCCC1)c1nn(-c2ccc(Cl)cc2Cl)c2c1ccc1cc(C3CC3)ccc12
pKi (Cannabinoid receptor 1 [1]): < 4.40 | pKi (Cannabinoid receptor 2 [2]): < 4.40 | Activity (Cannabinoid receptor 1 [3]): > 70% | Activity (Cannabinoid receptor 2 [4]): > 70%

SMILES: O=C(NN1CCOCC1)c1nn(-c2ccc(Cl)cc2Cl)c2c1Cc1cc(C3CC3)ccc1-2
pKi (Cannabinoid receptor 1 [1]): 5.39 | pKi (Cannabinoid receptor 2 [2]): 6.70 | Activity (Cannabinoid receptor 1 [3]): > 70% | Activity (Cannabinoid receptor 2 [4]): > 70% | Ratio Ki [5]: 20.4

SMILES: CC1(C)[C@@H]2CC[C@]1(C)[C@H](NC(=O)c1nn(-c3ccc(Cl)cc3Cl)c3c1Cc1cc(C4CC4)ccc1-3)C2
pKi (Cannabinoid receptor 1 [1]): < 4.40 | pKi (Cannabinoid receptor 2 [2]): 7.42 | Activity (Cannabinoid receptor 1 [3]): > 70% | Activity (Cannabinoid receptor 2 [4]): > 70% | Ratio Ki [5]: > 1060 | pIC50 (Cannabinoid receptor 2 [6]): 7.57 | Activity [7]: inactive | Activity [8]: Active | Activity [9]: Active

SMILES: CC1(C)C2CC[C@@](C)(C2)C1NC(=O)c1nn(-c2ccc(Cl)cc2Cl)c2c1Cc1cc(C3CCCCC3)ccc1-2 (stereo partly drawn)
pKi (Cannabinoid receptor 1 [1]): < 5.00 | pKi (Cannabinoid receptor 2 [2]): < 5.00 | Activity (Cannabinoid receptor 1 [3]): > 70% | Activity (Cannabinoid receptor 2 [4]): > 70%

SMILES: O=C(c1nn(-c2ccc(Cl)cc2Cl)c2c1Cc1cc(C3CC3)ccc1-2)N1CCCCC1
pKi (Cannabinoid receptor 1 [1]): < 5.00 | pKi (Cannabinoid receptor 2 [2]): 6.38 | Activity (Cannabinoid receptor 1 [3]): > 70% | Activity (Cannabinoid receptor 2 [4]): > 70% | Ratio Ki [5]: > 24.2

SMILES: O=C(NC12CC3CC(CC(C3)C1)C2)c1nn(-c2ccc(Cl)cc2Cl)c2c1Cc1cc(C3CC3)ccc1-2
pKi (Cannabinoid receptor 1 [1]): < 5.00 | pKi (Cannabinoid receptor 2 [2]): 8.40 | Activity (Cannabinoid receptor 1 [3]): > 70% | Activity (Cannabinoid receptor 2 [4]): > 70% | Ratio Ki [5]: > 2230 | pIC50 (Cannabinoid receptor 2 [6]): 7.29 | Activity [7]: inactive | Activity [8]: inactive | Activity [9]: Active

SMILES: O=C(c1nn(-c2ccc(Cl)cc2Cl)c2c1ccc1cc(C3CC3)ccc12)N1CCCCC1
pKi (Cannabinoid receptor 1 [1]): < 4.40 | pKi (Cannabinoid receptor 2 [2]): < 4.40 | Activity (Cannabinoid receptor 1 [3]): > 70% | Activity (Cannabinoid receptor 2 [4]): > 70%

SMILES: O=C(NN1CCCC1)c1nn(-c2ccc(Cl)cc2Cl)c2c1Cc1cc(C3CC3)ccc1-2
pKi (Cannabinoid receptor 1 [1]): 5.38 | pKi (Cannabinoid receptor 2 [2]): 6.82 | Activity (Cannabinoid receptor 1 [3]): > 70% | Activity (Cannabinoid receptor 2 [4]): > 70% | Ratio Ki [5]: 27.7

SMILES: O=C(NN1CCCCC1)c1nn(-c2ccc(Cl)cc2Cl)c2c1Cc1cc(C3CCCCC3)ccc1-2
pKi (Cannabinoid receptor 1 [1]): < 5.00 | pKi (Cannabinoid receptor 2 [2]): 6.29 | Activity (Cannabinoid receptor 1 [3]): > 70% | Activity (Cannabinoid receptor 2 [4]): > 70% | Ratio Ki [5]: > 19.6

SMILES: O=C(NN1CCCCC1)c1nn(-c2ccc(Cl)cc2Cl)c2c1Cc1cc(C3CC3)ccc1-2
pKi (Cannabinoid receptor 1 [1]): 5.73 | pKi (Cannabinoid receptor 2 [2]): 7.16 | Activity (Cannabinoid receptor 1 [3]): > 70% | Activity (Cannabinoid receptor 2 [4]): > 70% | Ratio Ki [5]: 26.7 | pIC50 (Cannabinoid receptor 2 [6]): 6.53

SMILES: O=C(NN1CCCCC1)c1nn(-c2ccc(Cl)cc2Cl)c2c1CCc1cc(C3CC3)ccc1-2
pKi (Cannabinoid receptor 1 [1]): < 4.40 | pKi (Cannabinoid receptor 2 [2]): 6.84 | Activity (Cannabinoid receptor 1 [3]): > 70% | Activity (Cannabinoid receptor 2 [4]): > 70% | Ratio Ki [5]: > 280

SMILES: CC1(C)C2CCC(CNC(=O)c3nn(-c4ccc(Cl)cc4Cl)c4c3CCc3cc(C5CC5)ccc3-4)C1C2 (stereo not drawn)
pKi (Cannabinoid receptor 1 [1]): < 5.00 | pKi (Cannabinoid receptor 2 [2]): < 5.00 | Activity (Cannabinoid receptor 1 [3]): > 70% | Activity (Cannabinoid receptor 2 [4]): > 70%

pKi (Cannabinoid receptor 1 [1]): < 4.40 | pKi (Cannabinoid receptor 2 [2]): 5.26 | Activity (Cannabinoid receptor 1 [3]): > 70% | Activity (Cannabinoid receptor 2 [4]): > 70%
SMILES: CC1(C)C2CC[C@@](C)(C2)C1NC(=O)c1nn(-c2ccc(Cl)cc2Cl)c2c1CCc1cc(C3CC3)ccc1-2 (stereo partly drawn)
Ratio Ki [5]: > 7.25

SMILES: CC1(C)C2CC[C@@](C)(C2)C1NC(=O)c1nn(-c2ccc(Cl)cc2Cl)c2c1ccc1cc(C3CC3)ccc12 (stereo partly drawn)
pKi (Cannabinoid receptor 1 [1]): < 4.40 | pKi (Cannabinoid receptor 2 [2]): < 4.40 | Activity (Cannabinoid receptor 1 [3]): > 70% | Activity (Cannabinoid receptor 2 [4]): > 70%

SMILES: O=C(NN1CCCC1)c1nn(-c2ccc(Cl)cc2Cl)c2c1Cc1cc(C3CCCCC3)ccc1-2
pKi (Cannabinoid receptor 1 [1]): < 5.00 | pKi (Cannabinoid receptor 2 [2]): 6.29 | Activity (Cannabinoid receptor 1 [3]): > 70% | Activity (Cannabinoid receptor 2 [4]): > 70% | Ratio Ki [5]: > 19.4

pKi (Cannabinoid receptor 1 [1]): < 4.40 | pKi (Cannabinoid receptor 2 [2]): 6.08 | Activity (Cannabinoid receptor 1 [3]): > 70% | Activity (Cannabinoid receptor 2 [4]): > 70%
SMILES: O=C(NN1CCCCC1)c1nn(-c2ccc(Cl)cc2Cl)c2c1ccc1cc(C3CC3)ccc12
Ratio Ki [5]: > 48.5

SMILES: CC1(C)C2CC[C@@](C)(C2)C1NC(=O)c1nn(-c2ccc(Cl)cc2Cl)c2c1Cc1cc(C3CC3)ccc1-2 (stereo partly drawn)
pKi (Cannabinoid receptor 1 [1]): < 4.40 | pKi (Cannabinoid receptor 2 [2]): 8.22 | Activity (Cannabinoid receptor 1 [3]): > 70% | Activity (Cannabinoid receptor 2 [4]): > 70% | Ratio Ki [5]: > 6940 | pIC50 (Cannabinoid receptor 2 [6]): 7.09 | Activity [7]: Active | Activity [8]: inactive | Activity [9]: Active
